Patent US6566368B2, “Apomorphine-containing dosage form for ameliorating male erectile dysfunction” (Pentech Pharmaceuticals, Inc., priority 1994, dated 2003)
Where “and” joins values, the source holds several entries; their conditions need not be identical. Identical values can stand only once. Like-named read-outs stand apart in the source and are kept apart here.

Columns and labels:
[1] = cited from earlier work
[2] = tested on: men with psychogenic male erectile dysfunction (MED); test: Pilot Study #6: safety and tolerance of escalating APO doses (adverse events, serum chemistry, vital signs)
Description: A clinical study of patient tolerance of escalating doses in sublingual tablet administration of APO for the treatment of psychogenic male erectile dysfunction was performed.
In the second phase, subjects returned to the clinic for four visits, each visit one week apart. Subjects received one sublingual administration of either placebo, or 4, 6 and 8 mg APO at each visit. Doses of APO were administered in ascending order with the placebo being randomly assigned for use at one of the four visits. The procedures performed before and after drug administration were the same as those in the first phase.
Fifty males with psychogenic MED were enrolled in this three phase trial. The first aim of this study was to determine the safety and tolerance of APO in the treatment of MED.

[3] = tested on: men with psychogenic male erectile dysfunction (MED); test: Pilot Study #6, third phase: home use, reported success of intercourse (Sexual Function questionnaire); type: in vivo, human; conditions: 4 or 6 mg APO sublingual tablets
[4] = tested on: patients with psychogenic impotence; test: Pilot Study #3: aqueous intranasal spray (1.25 mg per puff), […] erectile response, adverse effects; type: in vivo, human
From the text: The first patient was an anxious person who had been experiencing erectile dysfunction for two years.

[5] = tested on: patients with psychogenic impotence
clinical = conditions: male, human, in vivo; for clearance: Cl
[6] = tested on: non-vasculogenic impotent patients; test: Dose Evaluation Study: clinical response to sublingual apomorphine tablets before intercourse; conditions: for Positive Responses % / Positive Responses No.: 20 days
[7] = tested on: patients with psychogenic impotence; remark: listed apart in the source
[8] = tested on: patients with psychogenic impotence; conditions: for Mean (SE) erectile function / Percent (SE) successful erectile function (score at least 16): N 12
[9] = in vivo; for Vd (SS) / Vd (beta): male, human
[10] = Durif, F. et al., s.l., 7 × 3 mg tablets, 0.3 mg/kg, 7 subjects
[11] = Durif, F. et al., s.l., 14 × 3 mg tablets, 0.6 mg/kg, 7 subjects
[12] = Gancher, S. T., et al., s.c., 0.02 mg/kg, 5 subjects
[13] = Gancher, S. T., et al., s.l., 3 × 6 mg tablets, 0.25 mg/kg, 5 subjects
[14] = Montastruc, J. L., et al., s.c., 0.04 mg/kg, 9 subjects
[15] = Montastruc, J. L., et al., s.l., 10 × 3 mg tablets, 0.42 mg/kg, 9 subjects
[16] = intranasal 2.5 mg, Patient No. 2
[17] = sublingual tablets 2.5 mg and 5 mg, seven evaluable patients
[18] = 3 mg tablet 20 minutes prior to intercourse, 5 patients
[19] = 4 mg tablet 20 minutes prior to intercourse, 5 patients
[20] = 5 mg tablet 20 minutes prior to intercourse, 10 patients
[21] = 6 mg tablet 20 minutes prior to intercourse, 10 patients
[22] = 7 mg tablet 20 minutes prior to intercourse, 10 patients
[23] = 8 mg tablet 20 minutes prior to intercourse, 10 patients
[24] = 10 mg tablet 20 minutes prior to intercourse, 10 patients
[25] = liquid apomorphine sublingual, 10 mg and 20 mg, ten evaluable patients
[26] = liquid sublingual 10 mg and 20 mg
[27] = sublingual tablets 3, 4, 5 mg (Table I), twelve patients

For `CN1CCc2cccc3c2[C@H]1Cc1ccc(O)c(O)c1-3` [apomorphine], the Cmax ([1]; Durif, F. et al., Clin. Neuropharm. 16:157-166, s.l., 7 × 3 mg tablets, 0.3 mg/kg, 7 subjects) is listed as 7.5 ng/mL, the AUC [1, 10] is listed as 929 ng·min/mL and the Cl [1, 10] is listed as 35 mL/min/kg. The MRT [1, 10] was 128 min, the Tmax [1, 10] was 31.5 min and the Vd [1, 10] was 3.4 L/kg. For the same compound, the AUC [1, 11] was 2,277 min*ng/ml, the Cl [1, 11] was 30 mL/min/kg and the Cmax [1, 11] was 22.7 ng/mL. For the same compound, the MRT [1, 11] was 125 min, the Tmax [1, 11] was 38.3 min and the Vd [1, 11] was 2.8 L/kg. The Cmax ([1]; Gancher, S. T., et al., Movement Disorders 6:212-216 (1991), s.l., 3 × 6 mg tablets, 0.25 mg/kg, 5 subjects) was 14.3 ng/mL, the Vd ([1]; Gancher, S. T., et al., i.v., […], 5 subjects, *Calculated) was 0.043* l/kg and the Tmax ([1]; Gancher, S. T., et al., i.v., […], 5 subjects) was 6.7 min. For the same compound, the AUC [1, 12] was 592.7 ng·min/mL, the Cmax [1, 12] was 19.36 ng/mL and the Tmax [1, 12] was 6.5 min. For the same compound, the AUC [1, 13] was 1,057 min*ng/ml, the Tmax [1, 13] was 45 min and the Cmax ([1]; Montastruc, J. L., et al., Clin. Neuropharmacol. 14:432-437 (1991), s.l., 10 × 3 mg tablets, 0.42 mg/kg, 9 subjects) was 28 ng/mL. For the same compound, the AUC [1, 14] was 837 ng·min/mL, the Cmax [1, 14] was 26 ng/mL and the Tmax [1, 14] was 18 min. The AUC [1, 15] was 1,882 min*ng/ml, the Tmax [1, 15] was 41 min and the “cardiovascular and other adverse events” value ([2]; 4, 6, 8 mg sublingual, with bradycardia, dizziness, syncope, pallor) was “Hypotension was reported as an adverse event in some subjects”. The incidence of vomiting ([2]; all administered doses) was “less than 3%”, the “nausea cases considered severe” value ([2]; all administered doses) was “two” and the “overall incidence of nausea” value ([2]; all administered doses (4, 6, 8 mg sublingual)) was “less than 13 % of the subjects”. The “changes in serum chemistry values and vital signs” value ([2]; except one subject with abnormal liver function of unknown origin) was “no clinically significant changes”, the “men with MED in whom erections were caused” value [3] was 72% and the adverse effects [4, 16] was “major hemodynamic adverse effects”. The “blood pressure (hypotension)” value [4, 16] was 70/50, the total yawns ([4]; intranasal 2.5 mg, Patient No. 2, ten minutes post-dosing) was “five” and the erectile response ([4]; intranasal administration) was “effective in eliciting an erection”. For the same compound, the “score on both erotic and neutral video segments” value ([4]; intranasal spray 2.5 mg, 3.75 mg, first patient, categorized as a failure) was “less than sixteen”, the “time to adverse effects (nausea and vomiting, dizziness, blurred vision, diaphoresis)” value ([4]; intranasal spray, first patient, after inadvertently increased dose) was “five” and the Ke (IV Administration, mean (Table XII)) was 0.0237 min⁻¹. For the same compound, the Ke (IV administration 1 mg, mean, n = 7) was 0.0237 min⁻¹, the Vd (male, human, in vivo, 0.114 mg/kg) was 2.07 L/kg and the Ke (sublingual 4 mg dose, individual subjects #1, #3, #6, #7) was 0.0060 min⁻¹. The Ke (sublingual 8 mg Dose, mean (Table XII)) was 0.0056 min⁻¹, the Ke (sublingual administration 8 mg dose, mean, n = 4) was 0.0056 min⁻¹ and the yawns per session ([5]; 2.5 mg dose, patients who failed testing) was “one or two”. For the same compound, the “yawning responses per session” value ([5]; 5 mg dose) was “three to five”, the adverse effects ([5]; sublingual tablet 2.5 mg, the two successful patients) was “did not produce adverse effects” and the “adverse effects (nausea, diaphoresis, dizziness, blurred vision, facial flushing, drop in heart rate and blood pressure)” value ([5]; sublingual tablet 5 mg) was “produced adverse effects”. The “failures during lab testing” value [5, 17] was 71%, the “successes (score of no less than 16) during lab testing” value [5, 17] was 28% and 29% and the erectile response ([5]; sublingual tablets 2.5 and 5 mg) was “produced erectile responses in some patients”. The “time for sublingual tablets to dissolve” value ([5]; sublingual tablets 2.5 and 5 mg, under the tongue) was “five”, the yawns ([5]; the two successful patients, 2.5 mg and 5 mg doses) was “three to five” and the Vd (clinical; 0.06 mg/kg) was 2.33 L/kg. For the same compound, the clearance (clinical; iv, 0.01 mg/kg) was 72.8 mL/min/kg, the Vd (clinical; iv, 0.01 mg/kg) was 3.35 L/kg and the AUC(0-inf) (clinical; iv, 1 mg, AUC (0-inf)) was 3.45 ng·h/mL. The clearance (clinical; iv, 1 mg) was 5100 mL/min, the Cmax (clinical; iv, Cmax) was 8.36 ng/mL and the “Positive Responses %” value [6, 18] was 0%. The “Positive Responses No.” value [6, 18] was 0, the Nausea % ([6]; 3 mg tablet, 5 patients) was 0% and the “Nausea No.” value ([6]; 3 mg tablet, 5 patients) was 0. The Vomiting % ([6]; 3 mg tablet, 5 patients) was 0%, the “Vomiting No.” value ([6]; 3 mg tablet, 5 patients) was 0 and the “Positive Responses %” value [6, 19] was 40%. For the same compound, the “Positive Responses No.” value [6, 19] was 2, the Nausea % ([6]; 4 mg tablet, 5 patients) was 20% and the “Nausea No.” value ([6]; 4 mg tablet, 5 patients) was 1. For the same compound, the Vomiting % ([6]; 4 mg tablet, 5 patients) was 20%, the “Vomiting No.” value ([6]; 4 mg tablet, 5 patients) was 1 and the “Positive Responses %” value [6, 20] was 50%. The “Positive Responses No.” value [6, 20] was 5, the Nausea % ([6]; 5 mg tablet, 10 patients) was 20% and the “Nausea No.” value ([6]; 5 mg tablet, 10 patients) was 2. The Vomiting % ([6]; 5 mg tablet, 10 patients) was 10%, the “Vomiting No.” value ([6]; 5 mg tablet, 10 patients) was 1 and the “Positive Responses %” value [6, 21] was 70%. The “Positive Responses No.” value [6, 21] was 7, the Nausea % ([6]; 6 mg tablet, 10 patients) was 20% and the “Nausea No.” value ([6]; 6 mg tablet, 10 patients) was 2. The Vomiting % ([6]; 6 mg tablet, 10 patients) was 20%, the “Vomiting No.” value ([6]; 6 mg tablet, 10 patients) was 2 and the “Positive Responses %” value [6, 22] was 70%. For the same compound, the “Positive Responses No.” value [6, 22] was 7, the Nausea % ([6]; 7 mg tablet, 10 patients) was 20% and the “Nausea No.” value ([6]; 7 mg tablet, 10 patients) was 2. The Vomiting % ([6]; 7 mg tablet, 10 patients) was 20%, the “Vomiting No.” value ([6]; 7 mg tablet, 10 patients) was 2 and the “Positive Responses %” value [6, 23] was 70%. For the same compound, the “Positive Responses No.” value [6, 23] was 7, the Nausea % ([6]; 8 mg tablet, 10 patients) was 30% and the “Nausea No.” value ([6]; 8 mg tablet, 10 patients) was 3. The Vomiting % ([6]; 8 mg tablet, 10 patients) was 30%, the “Vomiting No.” value ([6]; 8 mg tablet, 10 patients) was 3 and the “Positive Responses %” value [6, 24] was 80%. The “Positive Responses No.” value [6, 24] was 8, the Nausea % ([6]; 10 mg tablet, 10 patients) was 40% and the “Nausea No.” value ([6]; 10 mg tablet, 10 patients) was 4. The Vomiting % ([6]; 10 mg tablet, 10 patients) was 40%, the “Vomiting No.” value ([6]; 10 mg tablet, 10 patients) was 4 and the failures with apomorphine [7, 25] was 30%. For the same compound, the “successes (score of no less than 16 on both neutral and erotic video segments)” value [7, 25] was 70%, the adverse effects [7, 26] was “Adverse effects were reported at both dose levels” and the erectile response [7, 26] was “produce erectile responses”. The “longest duration of side effects” value [7, 26] was 30 to 40 min, the “onset of adverse effects” value [7, 26] was “ten to fifteen” and the yawns per session ([7]; liquid sublingual 10 mg and 20 mg, each patient) was “two to five”. The erectile response ([7]; liquid sublingual 10 mg and 20 mg, listed as Apomorphine) was “effective in inducing erectile episodes without increasing libido”, the “patients successful with apomorphine among those who had failed a trial of yohimbine HCl” value ([7]; of group of eight, liquid sublingual 10 mg and 20 mg) was 6 and the “patients developing nausea, diaphoresis, dizziness, blurred vision, decrease in blood pressure and heart rate” value ([7]; of ten evaluable, liquid sublingual 10 mg and 20 mg) was “eight”. For the same compound, the “active treatment compared with placebo, mean erectile function” value ([8]; 3 mg and 4 mg, regardless of stimulus background) was “more effective than placebo”, the “Mean (SE) erectile function” value ([8]; Erotic stimulus, 3 mg) was 18.75 (2.51) and the “Percent (SE) successful erectile function (score at least 16)” value ([8]; Erotic stimulus, 3 mg) was 66.67 (13.61) Percent. The “Mean (SE) erectile function” value ([8]; Erotic stimulus, 4 mg) was 19.83 (2.67), the “Percent (SE) successful erectile function (score at least 16)” value ([8]; Erotic stimulus, 4 mg) was 66.67 (13.61) Percent and the “Mean (SE) erectile function” value ([8]; Neutral stimulus, 3 mg) was 11.83 (2.68). For the same compound, the “Percent (SE) successful erectile function (score at least 16)” value ([8]; Neutral stimulus, 3 mg) was 50.00 (14.43) Percent, the “Mean (SE) erectile function” value ([8]; Neutral stimulus, 4 mg) was 13.50 (2.61) and the “Percent (SE) successful erectile function (score at least 16)” value ([8]; Neutral stimulus, 4 mg) was 50.00 (14.43) Percent. The number of yawns ([8]; all doses 3, 4, 5 mg) was “one or two”, the “domestic use, patient reports” value ([8]; eight successful patients, one to four months) was “good erectile activity and no side effects” and the “patients successfully treated among those who had failed a trial of yohimbine HCl” value ([8]; of group of seven) was “four”. The failures with apomorphine [8, 27] was 33%, the “patients successful with apomorphine” value [8, 27] was 67% and the “plasma concentration compared with previous reports (Table XVI)” value [9] was “produced a lower plasma concentration”. The “Vd (SS)” value ([9]; 4 mg) was 1.836 mL, the “Vd (beta)” value ([9]; 4 mg) was 4.076 mL and the “Vd (SS)” value ([9]; 8 mg) was 46.30 mL. The “Vd (beta)” value ([9]; 8 mg) was 69.09 mL.
